# Experiments:
# [1] = test system: SpADH2; assay: Substrate spectrum (spectrophotometric specific activity, fluorescent probe); assay type: biochemical, Sphingobium sp. SYK-6; conditions: substrate 5 mM, 1 h; for specific activity of SpADH2 toward the substrate: cofactor NAD^+ 2 mM, 0.05 µg SpADH2, pH 7.5, 30℃; for substrate preference of SpADH2 (in words): cofactor p-BANA^+ 7.5 mM, 5 µg SpADH2, pH 7.5, 30℃
# Experimental: Fig. 3 Substrate spectrum of SpADH2 utilizing (a) NAD^+ and (b) p-BANA^+. The darkness of the background color for each substrate stands for the activity of SpADH2 with NAD^+ (purple) or p-BANA^+ (cyan) as cofactor. The evaluation of substrate spectrum of SpADH2 was carried out under following conditions: 50 mM PBS buffer (pH 7.5) and 30℃, with 1a (5 mM) as substrate. For NAD^+(2 mM), 0.05 µg SpADH2 was added, and for p-BANA^+(7.5 mM), 5 µg SpADH2 was added. After 1 h, reactions were visualized by 0.2 mM florescent probes (2-[2-(1,4-dihydro-1-methyl-3-quinolinyl)ethenyl]-1,3,3-trimethyl-3H-indolium)
# (§1) Specific activity of SpADH2 in substrate spectrum study was measured spectrophotometrically. PBS (pH 7.5) buffer was pre-heated at 30°C for 15 min. For NAD^+, 0.05 µg SpADH2 was added to the PBS buffer (100 µL), and a final concentration of 2 mM NAD^+ was added. For tsNCBs cofactor p-BANA^+, 5 µg SpADH2 and a final concentration of 7.5 mM p-BANA^+ was added. The mixture was carried out in a 96-well microplate, and a final concentration of 5 mM substrate was added to start the reaction. The microplate was incubated in 30°C for 1 h. Florescent probes (2-[2-(1,4-dihydro-1-methyl-3-quinolinyl)ethenyl]-1,3,3-trimethyl-3H-indolium) in a final concentration of 0.2 mM (100 µL) was added (Scheme S1), and the microplate was placed in a microplate reader immediately for measurement under 537 nm (Fomin et al. [2016]).
# One unit of enzyme activity is defined as the amount of enzyme required to form 1 µmol of reduced florescent probes per minute at pH 7.5 and 30°C. Each reaction was repeated in triplet. Same reaction without substrate was used as a blank control. The molar absorbance coefficient (ε) was detected as […] with NADH as the reduced cofactor and 60,801 µM^− 1·cm^− 1 with p-BANAH as the reduced cofactor.
# [2] = test system: SpADH2; assay: Preliminary evaluation of NCB usage in oxidation of syringyl alcohol (HPLC); assay type: biochemical, Sphingobium sp. SYK-6; conditions: preliminary assay: 1a 1 mM, NCB 10 mM, pH 7.0, 30℃, 1 h
# Experimental: Sphingobium sp. SYK-6 belongs to genus Sphingomonas, and a search in UniProtKB identified 19 ADHs from this strain, including 5 PQQ-dependent and the remaining NAD^+/NADP^+-dependent enzymes. Two sequences annotated as aryl-alcohol dehydrogenases (SLG_34580 and SLG_24930) (Table. S1) were selected for heterologous expression (Fig. S1) and named SpADH1 and SpADH2, respectively. Their ability to utilize NCBs was assessed by oxidation of syringyl alcohol (1a) to produce syringaldehyde (1b) (Fig. 1a).
# Fig. 1 (a) Reaction scheme of SpADH2-catalyzed oxidation of syringyl alcohol. (b) Specific activity of SpADH2 toward four NCBs. The evaluation of NCBs usage by SpADH2 was carried out under following conditions: 50 mM PBS buffer (pH 7.0) and 30℃, with 1a (1 mM) as substrate and 4 typical NCBs (10 mM) as cofactor. A total of 0.1 mg/mL enzyme was added to a 200 µL reaction mixture, and was analyzed by HPLC after 1 h reaction
# Reaction samples were analyzed using Agilent 1260 Infinity II LC system under reversed phase condition. Column: Agilent C18 column. Analytical conditions for 1a and 1b: mobile phase: 50% water: 50% acetonitrile. The retention time for standard product 1b was 3.27 min, under flow rate of 1 mL·min^− 1and temperature of 30°C (Fig. S4).
# [3] = test system: SpADH2; assay: Cofactor spectrum of syringyl alcohol oxidation (HPLC specific activity), WT; assay type: biochemical, Sphingobium sp. SYK-6; conditions: 1a 5 mM, cofactor 7.5 mM, pH 7.5, 30℃; for decrease in activity compared with NAD^+ as cofactor: 0.05 µg SpADH2; for utilization of the tsNCB by SpADH2 (in words) / activity of SpADH2 with the tsNCB as cofactor: 5 µg SpADH2, 1 h
# Experimental: Fig. 2 Cofactor spectrum of syringyl alcohol oxidation catalyzed by SpADH2. The darkness of the background color for each cofactor stands for the activity of SpADH2 utilizing various cofactors. (a) NAD(P) ^+ and NMN^+ are shown in purple background. (b) tsNCBs are shown in cyan background. The evaluation of cofactor spectrum of SpADH2 was carried out under following conditions: 50 mM PBS buffer (pH 7.5) and 30℃, with 1a (5 mM) as substrate and different cofactors (7.5 mM) as cofactor. For NAD(P)^+ and NMN^+, 0.05 µg SpADH2 was added, and for tsNCBs, 5 µg SpADH2 was added. The results were analyzed by HPLC after 1 h reaction
# (§2) Specific activity of SpADH2 in cofactor spectrum study was determined by HPLC analysis. PBS (pH 7.5) buffer was pre-heated at 30°C for 15 min. For NAD(P)^+ and NMN^+, 0.05 µg SpADH2 was added to PBS buffer (100 µL). For tsNCBs, 5 µg SpADH2 was added. A final concentration of 7.5 mM cofactor was added to the reaction mixture. Finally, a final concentration of 5 mM substrate was added to start the reaction. The reactions were conducted at 30°C.
# (§3) One unit of enzyme activity is defined as the amount of enzyme required to form 1 µmol 1b per minute at pH 7.5 and 30°C. Same reaction without cofactor was used as a blank control.
# [4] = test system: SpADH2 variants (H43L, A290I, H43L/A290I); assay: Cofactor spectrum (HPLC specific activity), all variants together; assay type: biochemical, Sphingobium sp. SYK-6; conditions: 1a 5 mM, cofactor 7.5 mM, pH 7.5, 30℃
# Experimental: (§4) Fig. 8 Cofactor spectrums of SpADH2 and its variants. The darkness of color for each cofactor stands for the activity. For each cofactor cube, top left: WT, top right: H43L, bottom left: A290I, bottom right: H43L/A290I. (a) Natural cofactors and NMN^+ are shown in purple. (b) tsNCBs are shown in cyan. The evaluation of cofactor spectrum was carried out under following conditions: 50 mM PBS buffer (pH 7.5) and 30℃, with 1a (5 mM) as substrate and different cofactors (7.5 mM) as cofactor. For NAD(P)^+ and NMN^+, 0.05 µg enzyme was added, and for tsNCBs, 5 µg enzyme was added. The results were analyzed by HPLC after 1 h reaction
# as §2, §3
# [5] = target: T1, SpADH2 WT (Sphingobium sp. SYK-6, UniProt G2IIZ8); assay: Substrate kinetic assay, WT; assay type: biochemical; conditions: 1a varied, cofactor (= label) fixed: 5 mM NAD^+ or 7.5 mM p-BANA^+
# Experimental: as §1
# (§5) Kinetic analysis of SpADH2 and its variants were carried out following Michaelis-Menten equation or Michaelis-Menten excess substrate inhibition equation. For of the substrate kinetic assays, concentrations of cofactors were fixed at 5 mM for NAD^+ and 7.5 mM for p-BANA^+. For cofactor kinetic assays, the concentration of 1a was fixed at 5 mM.
# (§6) Specific activity was determined spectrophotometrically as above except that gradient 1a (0−20 mM) or cofactor (0−35 mM) concentrations were applied.
# (§7) Cofactor specificity ratio (CSR) represents the ratio of catalytic efficiency of p-BANA^+ to NAD^+ for each enzyme, and relative specificity (RS) stands for the CSR ratio of variants to WT (King et al. [2020]).
# [6] = target: T1, SpADH2 WT; assay: Cofactor kinetic assay, WT; assay type: biochemical; conditions: cofactor (= label) varied, 1a fixed at 5 mM
# Experimental: as §1, §5, §6, §7
# [7] = test system: SpADH2 variant H43L/A290I; assay: Substrate kinetic assay, H43L/A290I; assay type: biochemical, Sphingobium sp. SYK-6
# Experimental: as §1, §5, §6, §7
# [8] = test system: SpADH2 variant A290I; assay: Cofactor kinetic assay, A290I; assay type: biochemical, Sphingobium sp. SYK-6
# Experimental: as §1, §5, §6, §7
# [9] = test system: SpADH2 variant H43L/A290I; assay: Cofactor kinetic assay, H43L/A290I; assay type: biochemical, Sphingobium sp. SYK-6; conditions: cofactor (= label) varied, 1a fixed at 5 mM
# Experimental: as §1, §5, §6, §7
# [10] = test system: SpADH2 variant H43L; assay: Substrate kinetic assay, H43L; assay type: biochemical, Sphingobium sp. SYK-6; conditions: 1a varied, cofactor (= label) fixed: 5 mM NAD^+ or 7.5 mM p-BANA^+
# Experimental: as §1, §5, §6, §7
# [11] = test system: SpADH2 variant A290I; assay: Substrate kinetic assay, A290I; assay type: biochemical, Sphingobium sp. SYK-6
# Experimental: as §1, §5, §6, §7
# [12] = test system: SpADH2 variant H43L; assay: Cofactor kinetic assay, H43L; assay type: biochemical, Sphingobium sp. SYK-6; conditions: cofactor (= label) varied, 1a fixed at 5 mM
# Experimental: as §1, §5, §6, §7
# [13] = test system: SpADH2 variant A290I; assay: Cofactor spectrum (HPLC specific activity), variant A290I; assay type: biochemical, Sphingobium sp. SYK-6; conditions: 1a 5 mM, cofactor 7.5 mM, pH 7.5, 30℃, 5 µg enzyme
# Experimental: as §4, §2, §3
# [14] = test system: NC(=O)c1ccc[n+]([C@@H]2O[C@H](COP(=O)([O-])OP(=O)(O)OC[C@H]3O[C@@H](n4cnc5c(N)ncnc54)[C@H](O)[C@@H]3O)[C@@H](O)[C@H]2O)c1; assay: Cofactor kinetic assay, WT; assay type: biochemical, Sphingobium sp. SYK-6; conditions: other: WT, cofactor (= label) varied, 1a fixed at 5 mM, pH 7.5, 30°C
# Experimental: as §1, §5, §6, §7
# [15] = 1a varied, cofactor (= label) fixed: 5 mM NAD^+ or 7.5 mM p-BANA^+
# [16] = substrate kinetics, cofactor = label
# T1 sequence (G2IIZ8 1-372): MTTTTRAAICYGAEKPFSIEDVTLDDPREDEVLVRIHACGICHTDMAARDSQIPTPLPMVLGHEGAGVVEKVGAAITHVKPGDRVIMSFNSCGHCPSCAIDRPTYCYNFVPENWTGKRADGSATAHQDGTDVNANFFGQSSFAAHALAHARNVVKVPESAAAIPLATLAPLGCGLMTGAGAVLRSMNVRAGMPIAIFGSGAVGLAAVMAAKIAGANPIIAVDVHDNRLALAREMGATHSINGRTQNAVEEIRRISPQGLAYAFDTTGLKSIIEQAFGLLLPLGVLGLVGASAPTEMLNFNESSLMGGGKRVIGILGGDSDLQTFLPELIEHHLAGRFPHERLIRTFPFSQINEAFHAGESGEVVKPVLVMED
compound,measurement,setting,value
OCc1ccsc1 [3-thiophenemethanol],specific activity of SpADH2 toward the substrate,[1],4.78 U/mg
same,substrate preference of SpADH2 (in words),[1],No significant preference
"NC(=O)c1ccc[n+](Cc2ccccc2)c1 [BNA^+, 1-benzyl-3-carbamoylpyridin-1-ium]",utilization of the NCB by SpADH2 (in words),[2],Appreciable activity
"NC(=O)c1ccc[n+]([C@@H]2O[C@H](COP(=O)(O)OP(=O)([O-])OC[C@H]3O[C@@H](n4cnc5c(N)ncnc54)[C@H](OP(=O)(O)O)[C@@H]3O)[C@@H](O)[C@H]2O)c1 [NADP^+, reference compound]",decrease in activity compared with NAD^+ as cofactor,[3],roughly 50%
same,catalytic activity of all variants with the cofactor (in words),[4],relatively lower catalytic activity
"NC(=O)c1ccc[n+]([C@@H]2O[C@H](COP(=O)([O-])OP(=O)(O)OC[C@H]3O[C@@H](n4cnc5c(N)ncnc54)[C@H](O)[C@@H]3O)[C@@H](O)[C@H]2O)c1 [NAD^+, reference compound]",kcat,[5],134 ± 2.9 min^− 1
same,kcat,[6],58.7 ± 1.5 min^− 1
same,kcat,[7]; [15],18.9 ± 0.2 min^− 1
same,fold improvement in substrate inhibition (Ki) vs WT,[7]; [16],up to 9 fold
same,kcat,"[8]; cofactor (= label) varied, 1a fixed at 5 mM",28.3 ± 0.6 min^− 1
same,Km,"[8]; cofactor (= label) varied, 1a fixed at 5 mM, pH 7.5, 30°C",9 ± 1 µM
same,fold higher catalytic efficiency (kcat/Km) than WT,"[8]; cofactor kinetics, cofactor = label",1.5 fold
same,kcat,[9],12.6 ± 0.2 min^− 1
same,Km,"[9]; pH 7.5, 30°C",365 ± 25 µM
same,kcat,[10],102 ± 2.3 min^− 1
same,specific activity of SpADH2 with the cofactor,"[3]; 0.05 µg SpADH2, 1 h",4.40 U/mg
same,catalytic activity of all variants with the cofactor (in words),[4],relatively lower catalytic activity
same,kcat,[11]; [15],41.4 ± 1.4 min^− 1
same,substrate inhibition (in words),[11]; [16],no substrate inhibition was observed
same,kcat,[12],57.8 ± 1.2 min^− 1
same,Km,"[12]; pH 7.5, 30°C",99 ± 8 µM
"NC(=O)c1ccc[n+]([C@@H]2O[C@H](COP(=O)([O-])O)[C@@H](O)[C@H]2O)c1 [NMN^+, nicotinamide mononucleotide, reference compound]",decrease in activity compared with NAD^+ as cofactor,[3],roughly 50%
same,catalytic activity of all variants with the cofactor (in words),[4],relatively lower catalytic activity
OCc1ccccc1 [benzyl alcohol],specific activity of SpADH2 toward the substrate,[1],4.71 U/mg
same,substrate preference of SpADH2 (in words),[1],No significant preference
"NC(=O)c1ccc[n+](Cc2cccc(C(=O)O)c2)c1 [m-BANA^+, meta-3-carbamoyl-1-(3-carboxybenzyl)pyridin-1-ium]",catalytic activity of all variants with the cofactor (in words),[4],highest activity
same,catalytic activity with the tsNCB as cofactor,[13]; 1 h,118.11 U/g
"NC(=O)c1ccc[n+](Cc2cccc([N+](=O)[O-])c2)c1 [m-BNNA^+, meta-3-carbamoyl-1-(3-nitrobenzyl)pyridin-1-ium]",utilization of the tsNCB by SpADH2 (in words),[3],not effectively utilized
same,utilization of the tsNCB (in words),[13],capable of utilizing
NC(=O)c1ccc[n+](Cc2ccccc2Br)c1 [o-BBrNA^+],activity of SpADH2 with the tsNCB as cofactor,[3],1.3 U/g
"Cc1ccccc1C[n+]1cccc(C(N)=O)c1 [o-BMNA^+, ortho-3-carbamoyl-1-(2-methylbenzyl)pyridin-1-ium]",utilization of the tsNCB by SpADH2 (in words),[3],No detectable activity
NC(=O)c1ccc[n+](Cc2ccccc2[N+](=O)[O-])c1 [o-BNNA^+],activity of SpADH2 with the tsNCB as cofactor,[3],1.92 U/g
same,utilization of the tsNCB (in words),[13],capable of utilizing
"Cc1ccc(C[n+]2cccc(C(N)=O)c2)cc1 [p-BMNA^+, para-3-carbamoyl-1-(4-methylbenzyl)pyridin-1-ium]",utilization of the tsNCB by SpADH2 (in words),[3],No detectable activity
NC(=O)c1ccc[n+](Cc2ccc([N+](=O)[O-])cc2)c1 [p-BNNA^+],activity of SpADH2 with the tsNCB as cofactor,[3],2.25 U/g
same,utilization of the tsNCB (in words),[13],capable of utilizing
COc1cc(CO)cc(OC)c1O [syringyl alcohol],substrate preference of SpADH2 (in words),[1],optimal substrate
SpADH2 WT (Sphingobium sp. SYK-6),Km,[14],28 ± 3 µM

# — paper PMC12052742, “Engineering a newly identified alcohol dehydrogenase from Sphingobium Sp. for efficient utilization of nicotinamide cofactors biomimetics” (Bioresources and Bioprocessing, 2025)
